Data published in DBAASP.
≈ marks a conversion by molar mass, not a printed value.

Assays:
Assay in all cases: ≥ marks a high value that may be exact or a test limit, other limits are often not marked, values filed in µg/mL are converted to µM
[1] = system: Pseudomonas aeruginosa ATCC 27853
[2] = system: Staphylococcus epidermidis
[3] = system: Staphylococcus aureus ATCC 43300
Pseudomonas aeruginosa = system: Pseudomonas aeruginosa
Bacillus subtilis 168 = system: Bacillus subtilis 168
Escherichia coli B = system: Escherichia coli B
Staphylococcus aureus = system: Staphylococcus aureus
Staphylococcus aureus 1 = system: Staphylococcus aureus 1
[4] = system: Micrococcus luteus CCM 144
[5] = system: Candida albicans F7-39/IDE99
[6] = system: Fusarium graminearum PH-1
[7] = system: Staphylococcus aureus ATCC 25923
[8] = system: Enterococcus faecium mic80
[9] = system: Pseudomonas aeruginosa H103
[10] = system: Staphylococcus aureus C623
[11] = system: Pseudomonas aeruginosa 213
[12] = system: Escherichia coli ESBL 63103
Candida albicans C627 = system: Candida albicans C627
[13] = system: Pseudomonas aeruginosa LES400
[14] = system: Escherichia coli ATCC 25322
[15] = system: Staphylococcus epidermidis ATCC 12228
[16] = system: Klebsiella pneumoniae ATCC 700603
[17] = system: Escherichia coli ATCC 25922
[18] = system: Salmonella enterica subsp. enterica serovar Typhimurium ATCC 14028
Escherichia coli BW25113 = system: Escherichia coli BW25113
[19] = system: Acinetobacter baumannii ATCC 19606
[20] = system: Escherichia coli BW25113 ΔsbmA
Acinetobacter baumannii = system: Acinetobacter baumannii
Bacillus subtilis = system: Bacillus subtilis
[21] = system: Escherichia coli DH5alpha
Micrococcus luteus = system: Micrococcus luteus
Escherichia coli = system: Escherichia coli
[22] = system: Stenotrophomonas maltophilia
[23] = system: Corynebacterium glutamicum ATCC 13032
Streptococcus pyogenes = system: Streptococcus pyogenes
Proteus vulgaris = system: Proteus vulgaris
Salmonella typhimurium = system: Salmonella typhimurium

## CC[C@H](C)[C@H](NC(=O)CN)C(=O)N[C@@H](CC(C)C)C(=O)N[C@@H](CO)C(=O)N[C@@H](CO)C(=O)N[C@@H](CC(C)C)C(=O)N[C@@H](Cc1c[nH]c2ccccc12)C(=O)N[C@@H](CCCCN)C(=O)N[C@@H](CCCCN)C(=O)N[C@@H](CC(C)C)C(=O)N[C@@H](CCCCN)C(=O)N[C@@H](CCCCN)C(=O)N[C@@H](Cc1c[nH]c2ccccc12)C(=O)N[C@H](C(=O)N[C@@H](C)C(=O)N[C@@H](CCCCN)C(N)=O)[C@@H](C)CC [GILSSLWKKLKKWIAK]
[1]
  MIC: 13 µM (≈ 24.7 µg/mL)
[2]
  MIC: 1.6 µM (≈ 3.04 µg/mL)
[3]
  MIC: 2.5 µM (≈ 4.75 µg/mL)
Pseudomonas aeruginosa
  MIC: 24 µM (≈ 45.6 µg/mL)
Bacillus subtilis 168
  MIC: 7 µM (≈ 13.3 µg/mL)
Escherichia coli B
  MIC: 2.5 µM (≈ 4.75 µg/mL)
Staphylococcus aureus
  MIC: 2 µM (≈ 3.8 µg/mL)
Staphylococcus aureus 1
  MIC: 1.8 µM (≈ 3.42 µg/mL)
[4]
  MIC: 3 µM (≈ 5.7 µg/mL)
[5]
  MIC: 13 µM (≈ 24.7 µg/mL)

## CC[C@H](C)[C@H](NC(=O)[C@H](CCCCN)NC(=O)[C@H](CCCCN)NC(=O)[C@H](CC(C)C)NC(=O)[C@H](CCCCN)NC(=O)[C@H](CCCCN)NC(=O)[C@H](Cc1c[nH]c2ccccc12)NC(=O)[C@H](CC(C)C)NC(=O)[C@H](CO)NC(=O)[C@H](CO)NC(=O)[C@H](CC(C)C)NC(=O)[C@H](CCCCN)NC(=O)CN)C(=O)N[C@H](C(=O)N[C@@H](C)C(=O)N[C@@H](CCCCN)C(N)=O)[C@@H](C)CC [GKLSSLWKKLKKIIAK]
[1]
  MIC: 6.8 µM (≈ 12.5 µg/mL)
[2]
  MIC: 2.5 µM (≈ 4.6 µg/mL)
[3]
  MIC: 26 µM (≈ 47.8 µg/mL)
Pseudomonas aeruginosa
  MIC: 19 µM (≈ 35 µg/mL)
Bacillus subtilis 168
  MIC: 7 µM (≈ 12.9 µg/mL)
Escherichia coli B
  MIC: 20 µM (≈ 36.8 µg/mL)
Staphylococcus aureus
  MIC: 27 µM (≈ 49.7 µg/mL)
Staphylococcus aureus 1
  MIC: 11 µM (≈ 20.2 µg/mL)
[4]
  MIC: 3 µM (≈ 5.52 µg/mL)
[5]
  MIC: ≥ 34 µM

## NCC(=O)N1CCC[C@H]1C(=O)N[C@H]1CSSC[C@@H](C(=O)O)NC(=O)CNC(=O)[C@H](CO)NC(=O)[C@H](Cc2ccccc2)NC1=O [GPCFSGC]
[6]
  MIC: ≥ 48 µM

## CC[C@H](C)[C@H](N)C(=O)N[C@@H](CCCCN)C(=O)N[C@@H](Cc1c[nH]c2ccccc12)C(=O)N[C@@H](CCCCN)C(=O)N[C@@H](CCCN=C(N)N)C(=O)N[C@@H](Cc1c[nH]c2ccccc12)C(=O)N[C@@H](Cc1c[nH]c2ccccc12)C(=O)N[C@@H](Cc1c[nH]c2ccccc12)C(=O)N[C@@H](CCCN=C(N)N)C(=O)O [IKWKRWWWR]
[7]
  MIC: 22.1 µM (≈ 32 µg/mL)
[8]
  MIC: 22.1 µM (≈ 32 µg/mL)
[9]
  MIC: ≥ 88.6 µM
[10]
  MIC: 22.1 µM (≈ 32 µg/mL)
[11]
  MIC: ≥ 88.6 µM
[12]
  MIC: 22.1 µM (≈ 32 µg/mL)
Candida albicans C627
  MIC: 5.54 µM (≈ 8 µg/mL)
[13]
  MIC: ≥ 88.6 µM

## CC(C)C[C@H](NC(=O)[C@H](C)NC(=O)[C@H](CO)NC(=O)[C@H](CCCCN)NC(=O)[C@H](CC(C)C)NC(=O)[C@H](CC(C)C)NC(=O)[C@@H](N)CC(N)=O)C(=O)N[C@@H](CCCCN)C(=O)N[C@H](C(=O)N[C@H](C(=O)N[C@@H](CC(N)=O)C(=O)N[C@@H](CCCCN)C(=O)N[C@@H](CC(C)C)C(=O)N[C@@H](CC(C)C)C(=O)N[C@@H](C)C(=O)N[C@@H](C)C(=O)N[C@@H](CO)C(N)=O)C(C)C)[C@@H](C)O [NLLKSALKTVNKLLAAS]
[14]
  MIC: ≥ 32 µM
[1]
  MIC: 64 µM (≈ 114 µg/mL)
[15]
  MIC: 64 µM (≈ 114 µg/mL)
[7]
  MIC: 128 µM (≈ 228 µg/mL)
[16]
  MIC: 64 µM (≈ 114 µg/mL)

## CC(C)C[C@H](NC(=O)CNC(=O)[C@H](CC(N)=O)NC(=O)[C@@H](NC(=O)[C@@H](NC(=O)CNC(=O)[C@H](CC(C)C)NC(=O)[C@H](C)NC(=O)[C@H](CC(=O)O)NC(=O)[C@H](CC(N)=O)NC(=O)[C@H](CC(C)C)NC(=O)[C@H](CC(C)C)NC(=O)[C@@H](N)CC(N)=O)[C@@H](C)O)C(C)C)C(=O)N[C@@H](CC(C)C)C(=O)NCC(=O)N[C@@H](CCCN=C(N)N)C(=O)N[C@@H](CO)C(=O)O [NLLNDALGTVNGLLGRS]
[14]
  MIC: ≥ 64 µM
[7]
  MIC: 32 µM (≈ 55.3 µg/mL)

## CC[C@H](C)[C@H](NC(=O)[C@@H]1CCCN1C(=O)[C@@H]1CCCN1C(=O)[C@H](CCCN=C(N)N)NC(=O)[C@H](Cc1ccccc1)NC(=O)[C@@H](N)CCCN=C(N)N)C(=O)N[C@@H](CCCN=C(N)N)C(=O)N[C@@H](CCCN=C(N)N)C(=O)N1CCC[C@H]1C(=O)N1CCC[C@H]1C(=O)N[C@H](C(=O)N[C@@H](CCCN=C(N)N)C(=O)N1CCC[C@H]1C(=O)N1CCC[C@H]1C(=O)N[C@@H](Cc1ccccc1)C(=O)N[C@@H](Cc1ccc(O)cc1)C(=O)N1CCC[C@H]1C(=O)N1CCC[C@H]1C(=O)N[C@@H](Cc1ccccc1)C(=O)N[C@@H](CCCN=C(N)N)C(=O)N1CCC[C@H]1C(=O)O)[C@@H](C)CC [RFRPPIRRPPIRPPFYPPFRP]
[1]
  MIC: > 64 µM
[17]
  MIC: 4 µM (≈ 10.6 µg/mL)
[7]
  MIC: > 64 µM
[18]
  MIC: 8 µM (≈ 21.3 µg/mL)
Escherichia coli BW25113
  MIC: 2 µM (≈ 5.32 µg/mL)
[19]
  MIC: 16 µM (≈ 42.6 µg/mL)
[20]
  MIC: 16 µM (≈ 42.6 µg/mL)
[16]
  MIC: 32 µM (≈ 85.1 µg/mL)

## C[C@H](NC(=O)[C@H](Cc1ccccc1)NC(=O)CNC(=O)[C@@H](N)CCCN=C(N)N)C(=O)N[C@@H](CCCN=C(N)N)C(=O)N[C@@H](CCCN=C(N)N)C(=O)O [RGFARR]
[6]
  MIC: ≥ 96 µM

## CC(=O)N[C@@H](CCCN=C(N)N)C(=O)N[C@@H](Cc1c[nH]c2ccccc12)C(=O)N[C@H](C(=O)N[C@@H](Cc1c[nH]c2ccccc12)C(=O)N[C@@H](CCCN=C(N)N)C(=O)NCC(=O)N[C@@H](CO)C(=O)NCC(=O)N[C@@H](CCCN=C(N)N)C(=O)N[C@@H](Cc1c[nH]c2ccccc12)C(=O)N[C@H](C(=O)N[C@@H](Cc1c[nH]c2ccccc12)C(=O)N[C@@H](CCCN=C(N)N)C(N)=O)[C@@H](C)O)[C@@H](C)O [RWTWRGSGRWTWR]
Acinetobacter baumannii
  MIC: 17.9 µM (≈ 32.7 µg/mL)
Bacillus subtilis
  MIC: 8.93 µM (≈ 16.4 µg/mL)
[21]
  MIC: 25 µM (≈ 45.8 µg/mL)
Micrococcus luteus
  MIC: 8.93 µM (≈ 16.4 µg/mL)
Escherichia coli
  MIC: 8.93 µM (≈ 16.4 µg/mL)
Pseudomonas aeruginosa
  MIC: 69.8 µM (≈ 128 µg/mL)
[22]
  MIC: ≥ 279 µM
[23]
  MIC: 0.794 µM (≈ 1.45 µg/mL)
Staphylococcus aureus
  MIC: 4.47 µM (≈ 8.18 µg/mL)

## CC[C@H](C)[C@H](NC(=O)[C@@H](N)Cc1ccc(O)cc1)C(=O)N1CCC[C@H]1C(=O)N[C@@H](CCC(N)=O)C(=O)N1CCC[C@H]1C(=O)N[C@@H](CCCN=C(N)N)C(=O)N1CCC[C@H]1C(=O)N1CCC[C@H]1C(=O)N[C@@H](Cc1cnc[nH]1)C(=O)N1CCC[C@H]1C(=O)N[C@@H](CCCN=C(N)N)C(=O)N[C@@H](CC(C)C)C(=O)O [YIPQPRPPHPRL]
Bacillus subtilis
  MIC: ≥ 64 µM
Streptococcus pyogenes
  MIC: ≥ 64 µM
[2]
  MIC: ≥ 64 µM
Escherichia coli
  MIC: 64 µM (≈ 94.1 µg/mL)
Pseudomonas aeruginosa
  MIC: 64 µM (≈ 94.1 µg/mL)
Proteus vulgaris
  MIC: ≥ 64 µM
Salmonella typhimurium
  MIC: 0.5 µM (≈ 0.735 µg/mL)
